Assay in all cases: NCI tumour cell line growth inhibition, 48 h
The subject of test [1] is RXF-631 renal.
The test system of test [2] is PC-3 prostate.
The test system of test [3] is HS 578T breast.
Test [4] has as its system T-47D breast.
Test [5] deals with MDA-N.
Test [6] relates to MDA-MB-231 breast.
Test [7] has as its system DU-145 prostate.
In test [8] the test system is BT-549 breast.
The test system of test [9] is P388 leukemia.
Test [10] has as its system SN12K1 renal.
The subject of test [11] is P388/ADR leukemia.

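In this assay, cells in 96-well plates receive the compound at five concentrations for 48 hours. Endpoints are linearly interpolated between the surrounding concentrations. TGI marks complete inhibition of growth.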 Where only a bound is given, the exact number is not on record here.

`COC(=O)C(Cc1cc(OC)c(OC)c(OC)c1)(NC(=O)c1ccccc1)P(=O)(OC)OC` (stereo not drawn) registered a TGI in test [1] of over 100 µM.
With `c1ccc2c(CCNC3=NCCO3)cccc2c1`, the TGI in test [2], in test [3], in [4], in [5], in test [6] and in test [7] was over 10 µM in each case.
Consider `Nc1[nH]nc2c1Cc1c(n(Cc3ccc(Cl)cc3)c3ccccc13)C(=O)N2`, for which the TGI in [2] turned out to be 23.5 µM; in [3], 40.2 µM; in test [4] it was 28.9 µM; in [6], 30.6 µM; in test [7] it was 24.4 µM; in test [8] it was 36.6 µM.
Take `O=[N+]([O-])c1cnccc1-n1nnc2ccccc21`: the TGI in test [9] is 30.3 µM; in [10] it was over 95.5 µM.
As for `CSc1nc(NC2OC(CO)C(O)C(O)C2O)c(N)c(=O)[nH]1` (stereo not drawn), the TGI in [9], in [10] and in test [11] was over 100 µM in each case.

Source of the values: PubChem BioAssay (NCI).
